# Measured values reported in patent US6664398B2, “Derivatives of erythromycin, their preparation process and their use as medicaments” (Aventis Pharma S.A., priority 1999, dated 2003).
# How the values were obtained:
# Type in all cases: cell-based
# S. pneumoniae 032UC1 = assay: Method of dilutions in liquid medium (M.I.C.); details: reading after 24 hours, 37° C.
# Protocol: (§1) Method of dilutions in liquid medium A series of tubes is prepared in which the same quantity of nutritive sterile medium is distributed. Increasing quantities of the product to be studied are distributed into each tube, then each tube is sown with a bacterial strain. After incubation for twenty-four hours in a heating chamber at 37° C., the growth inhibition is evaluated by transillumination, which allows the minimal inhibitory concentrations (M.I.C.) to be determined, expressed in micrograms/cm^3. The following results were obtained with the product of Example 1: (reading after 24 hours)
# S. pneumoniae 030CR18c = assay: Method of dilutions in liquid medium (M.I.C.); details: reading after 24 hours, 37° C.
# Protocol: as §1
# S. pneumoniae 030GR20 = assay: Method of dilutions in liquid medium (M.I.C.); details: reading after 24 hours, 37° C.
# Protocol: as §1
# S. mitis 02MitGR16i = assay: Method of dilutions in liquid medium (M.I.C.); details: reading after 24 hours, 37° C.
# Protocol: as §1
# S. agalactiae 02B1SJ1c = assay: Method of dilutions in liquid medium (M.I.C.); details: reading after 24 hours, 37° C.
# Protocol: as §1
# S. pneumoniae 030SJ5i = assay: Method of dilutions in liquid medium (M.I.C.); details: reading after 24 hours, 37° C.
# Protocol: as §1
# S. aureus 011GO25i = assay: Method of dilutions in liquid medium (M.I.C.); details: reading after 24 hours, 37° C.
# Protocol: as §1
# S. pneumoniae 030SJ1c = assay: Method of dilutions in liquid medium (M.I.C.); details: reading after 24 hours, 37° C.
# Protocol: as §1
# S. pneumoniae 030RO1i = assay: Method of dilutions in liquid medium (M.I.C.); details: reading after 24 hours, 37° C.
# Protocol: as §1
# [1] = tested on: Streptococcus gr.G 02GOGR5; assay: Method of dilutions in liquid medium (M.I.C.); details: reading after 24 hours, 37° C.
# Protocol: as §1
# S. faecalis 02D2UC1 = assay: Method of dilutions in liquid medium (M.I.C.); details: reading after 24 hours, 37° C.
# Protocol: as §1
# S. aureus 011UC4 = assay: Method of dilutions in liquid medium (M.I.C.); details: reading after 24 hours, 37° C.
# Protocol: as §1
# S. pyogenes 02A1UC1 = assay: Method of dilutions in liquid medium (M.I.C.); details: reading after 24 hours, 37° C.
# Protocol: as §1
# S. agalactiae 02B1HT1 = assay: Method of dilutions in liquid medium (M.I.C.); details: reading after 24 hours, 37° C.
# Protocol: as §1
# S. mitis 02MitCB1 = assay: Method of dilutions in liquid medium (M.I.C.); details: reading after 24 hours, 37° C.
# Protocol: as §1
# S. faecalis 02D2DU15c = assay: Method of dilutions in liquid medium (M.I.C.); details: reading after 24 hours, 37° C.
# Protocol: as §1
# S. epidermidis 012GO11i = assay: Method of dilutions in liquid medium (M.I.C.); details: reading after 24 hours, 37° C.
# Protocol: as §1
# S. sanguis 02SGr10i = assay: Method of dilutions in liquid medium (M.I.C.); details: reading after 24 hours, 37° C.
# Protocol: as §1
# S. pneumoniae 030PW23c = assay: Method of dilutions in liquid medium (M.I.C.); details: reading after 24 hours, 37° C.
# Protocol: as §1
# S. faecium 02D3HT1 = assay: Method of dilutions in liquid medium (M.I.C.); details: reading after 24 hours, 37° C.
# Protocol: as §1
# [2] = tested on: Haemophilus Influenzae 351HT3, 351CB12, 351CA1 and 351GR6; assay: Activity on gram-negative bacterial strains
# Protocol: as §1
compound,measurement,setting,value
"CC[C@H]1OC(=O)[C@H](C)C(=O)[C@H](C)[C@@H](O[C@@H]2O[C@H](C)C[C@H](N(C)C)[C@H]2O)[C@](C)(OC)C[C@@H](C)C(=O)[C@H](C)[C@H]2N(CCCCn3ccc(-c4cccnc4)n3)C(=O)O[C@]12C [Example 1, 11,12-dideoxy-3-de[(2,6-dideoxy-3-C-methyl-3-O-methyl-α-L-ribohexopyranosyl)oxy]-6-O-methyl-3-oxo-12,11-[oxycarbonyl[[4-[3-(3-pyridinyl)-1H-pyrazol-1-yl]butyl]imino]]-erythromycin]",minimal inhibitory concentrations (M.I.C.),S. pneumoniae 032UC1,0.02 micrograms/cm^3
same,minimal inhibitory concentrations (M.I.C.),S. pneumoniae 030CR18c,0.300 micrograms/cm^3
same,minimal inhibitory concentrations (M.I.C.),S. pneumoniae 030GR20,0.02 micrograms/cm^3
same,minimal inhibitory concentrations (M.I.C.),S. mitis 02MitGR16i,0.02 micrograms/cm^3
same,minimal inhibitory concentrations (M.I.C.),S. agalactiae 02B1SJ1c,0.050 micrograms/cm^3
same,minimal inhibitory concentrations (M.I.C.),S. pneumoniae 030SJ5i,0.040 micrograms/cm^3
same,minimal inhibitory concentrations (M.I.C.),S. aureus 011GO25i,0.600 micrograms/cm^3
same,minimal inhibitory concentrations (M.I.C.),S. pneumoniae 030SJ1c,0.150 micrograms/cm^3
same,minimal inhibitory concentrations (M.I.C.),S. pneumoniae 030RO1i,0.150 micrograms/cm^3
same,minimal inhibitory concentrations (M.I.C.),[1],0.02 micrograms/cm^3
same,minimal inhibitory concentrations (M.I.C.),S. faecalis 02D2UC1,0.02 micrograms/cm^3
same,minimal inhibitory concentrations (M.I.C.),S. aureus 011UC4; S. aureus 011UC4+ 50% serum,0.600 micrograms/cm^3
same,minimal inhibitory concentrations (M.I.C.),S. aureus 011UC4; S. aureus 011UC4,0.040 micrograms/cm^3
same,minimal inhibitory concentrations (M.I.C.),S. pyogenes 02A1UC1,0.02 micrograms/cm^3
same,minimal inhibitory concentrations (M.I.C.),S. agalactiae 02B1HT1,0.02 micrograms/cm^3
same,minimal inhibitory concentrations (M.I.C.),S. mitis 02MitCB1,0.02 micrograms/cm^3
same,minimal inhibitory concentrations (M.I.C.),S. faecalis 02D2DU15c,5.000 micrograms/cm^3
same,minimal inhibitory concentrations (M.I.C.),S. epidermidis 012GO11i,0.040 micrograms/cm^3
same,minimal inhibitory concentrations (M.I.C.),S. sanguis 02SGr10i,0.02 micrograms/cm^3
same,minimal inhibitory concentrations (M.I.C.),S. pneumoniae 030PW23c,0.02 micrograms/cm^3
same,minimal inhibitory concentrations (M.I.C.),S. faecium 02D3HT1,0.02 micrograms/cm^3
same,activity on gram-negative bacterial strains,[2],useful activity
